Consider two compounds from patent US20200071361A1, “ENGINEERED ANTIMICROBIAL AMPHIPHILIC PEPTIDES AND METHODS OF USE” (priority 2017, published 2020).

In brackets after ≈: the same amount, converted by molar mass. Where two headings read alike, the source gives them in different places.

The subject of assay [1] is Staphylococcus aureus isolates (n = 104). Briefly: Broth microdilution MIC, clinical isolate panel. It counts as cell-based. The note with it: Staphylococcus aureus (n = 104), all methicillin-resistant; for MIC: read-out: Mode (MIC). On the procedure:
(§1) Comparator antibiotics were supplied by Micromyx, and stock solutions were prepared on the first day of testing using solvents recommended by CLSI (1). Stock solutions of all compounds were made at 40× the final testing concentration and stored at −80° C. prior to testing. Information regarding compound source, catalog and lot number, testing concentrations and drug diluent for the comparators and test agent are detailed below in Table 3.
(§2) The test organisms evaluated in this study consisted of clinical isolates from the Micromyx Repository and reference isolates from the American Type Culture Collection (ATCC; Manassas, Va.). The clinical isolates were obtained from USA hospitals. Upon initial receipt at Micromyx, the organisms were sub-cultured onto an appropriate agar medium. Following incubation, colonies were harvested from these plates and cell suspensions prepared and frozen at −80° C. with a cryoprotectant. Prior to testing, the isolates were streaked from frozen vials onto Trypticase Soy Agar with 5% sheep blood (Becton Dickenson [BD]; Sparks, Md.; Lot Nos. 7173618, 7166759, 7208688, 72144895, 7228505 and Remel Lenexa, Kans. Lot No. 212574). Plates were incubated at 35° C. overnight.
(§3) Mueller Hinton II broth (MHB II; BD; Lot Nos. 6258541 and 7143896) was used for MIC testing of aerobic organisms.
(§4) MIC values were determined using a broth microdilution procedure described by CLSI (1, 3). Automated liquid handlers (Multidrop 384, Labsystems, Helsinki, Finland; Biomek 2000 and Biomek FX, Beckman Coulter, Fullerton Calif.) were used to conduct serial dilutions and liquid transfers.
(§5) To prepare the drug mother plates, which would provide the serial drug dilutions for the replicate daughter plates, the wells of columns 2-12 of standard 96-well microdilution plates (Costar 3795) were filled with 150 μl of the designated diluent for each row of drug. The test articles and comparator compounds (300 μl at 40× the highest concentration to be tested) were dispensed into the appropriate wells in column 1. The Biomek 2000 was then used to make 2-fold serial dilutions in the mother plates from column 1 through column 11. The wells of Column 12 contained no drug and served as the organism growth control wells for the assay.
(§6) The daughter plates were loaded with 185 μL per well of MHB II using the Multidrop 384. The daughter plates were completed on the Biomek FX instrument which transferred 5 µL of drug solution from each well of a mother plate to the corresponding well of each daughter plate in a single step. A standardized inoculum of each test organism was prepared per CLSI methods (1). The inoculum for each organism was dispensed into sterile reservoirs divided by length (Beckman Coulter), and the Biomek 2000 was used to inoculate the plates. Daughter plates were placed on the Biomek 2000 work surface in reverse orientation so that inoculation took place from low to high drug concentration.
(§7) Plates were stacked 3-4 high, covered with a lid on the top plate, placed in plastic bags, and incubated at 35° C. for 16 to 20 hrs. Following incubation, the microplates were removed from the incubator and viewed from the bottom using a plate viewer. […] The MIC was read and recorded as the lowest concentration of drug that inhibited visible growth of the organism.
(§8) Clinical breakpoints to determine percent resistance within a given organism group were obtained from CLSI (3), with the exception of colistin for K. pneumoniae, Enterobacter spp., and E. coli, which are only available from EUCAST.
(Broth dilution looks for growth in wells or tubes with falling amounts of substance.)

Assay [2] has as its system Enterococcus faecium isolates (n = 104). In words: Broth microdilution MIC, clinical isolate panel. It counts as cell-based. The note with it: for MIC: read-out: Mode (MIC). On the procedure: as §1, §2, §3, §4, §5, §6, §7, §8

On to `CCCCCCCCCC(=O)N[C@@H](Cc1c[nH]c2ccccc12)C(=O)N[C@H](CC(N)=O)C(=O)N[C@@H](CC(=O)O)C(=O)N[C@@H]1C(=O)NCC(=O)N[C@@H](CCCN)C(=O)N[C@@H](CC(=O)O)C(=O)N[C@H](C)C(=O)N[C@@H](CC(=O)O)C(=O)NCC(=O)N[C@H](CO)C(=O)N[C@@H]([C@H](C)CC(=O)O)C(=O)N[C@@H](CC(=O)c2ccccc2N)C(=O)O[C@@H]1C` [Daptomycin], for which, in assay [1], the MIC50 was found to be 0.5 µg/mL (≈ 0.309 µM), the MIC90 came to 1 µg/mL (≈ 0.617 µM), the MIC range lay in the range of 0.25 to 4 µg/mL and the MIC was determined as 0.5 µg/mL (≈ 0.309 µM). In assay [2] (Enterococcus faecium (n = 104)), the MIC50 is 4 µg/mL (≈ 2.47 µM), the MIC90 came to 8 µg/mL (≈ 4.94 µM) and the minimal inhibitory concentration (MIC) is 2 µg/mL (≈ 1.23 µM).

In the case of `CC(=O)NC[C@H]1CN(c2ccc(N3CCOCC3)c(F)c2)C(=O)O1` [Linezolid], the “% R (percent of isolates resistant, clinical breakpoints)” value is recorded as 1.9% in assay [1] and 3.8% in assay [2] (Enterococcus faecium (n = 104)). Moreover, the MIC90 in assay [1] turned out to be 2 µg/mL (≈ 5.93 µM). The minimal inhibitory concentration (MIC) in assay [1] and in assay [2] (Enterococcus faecium) was 2 µg/mL (≈ 5.93 µM) each time.

Broadly, the MIC50 is the lowest concentration that inhibits either 50% of growth or 50% of the strains tested, depending on the study. One may read the MIC90 as the lowest concentration that inhibits either 90% of growth or 90% of the strains tested, depending on the study. Low readings indicate higher susceptibility, high ones lower susceptibility. Broadly, the MIC is the lowest concentration found to suppress growth.
